Data published in ChEMBL document CHEMBL5131427, “Targeted Discovery of Amantamide B, an Ion Channel Modulating Nonapeptide from a South China Sea Oscillatoria Cyanobacterium” (J Nat Prod, 2022).
pIC50: −log10 of the molar value. Calls of active or inactive are those of the source. The calls are words filed in the database; no cut-off is given here. Square brackets hold non-standard residues; d marks the D form. Peptide text beside a SMILES is read from it. * marks the point of attachment. dNMeF = CN[C@H](Cc1ccccc1)C(=O)O; NMeL = CN[C@@H](CC(C)C)C(=O)O; dNMeV = CN[C@@H](C(=O)O)C(C)C; Butyryl = CCCC(=O)*

What was measured:
K562 = experiment: Cytotoxicity against human K562 cells measured after 72 hrs by MTT assay; format: functional, cell-based; details: K562, 72 h
[1] = Cytotoxicity against Swiss-Webster mouse primary neocortical neuron at 10 uM incubated for 45 min by multi minute duration test; format: toxicity, cell-based; details: 0.75 h
U-937 = experiment: Cytotoxicity against human U-937 cells measured after 72 hrs by MTT assay; format: functional, cell-based; details: U-937, 72 h
CCRF-CEM = experiment: Cytotoxicity against human CCRF-CEM cells measured after 72 hrs by MTT assay; format: functional, cell-based
[2] = system: Primary neocortical neuron; experiment: Suppression of spontaneous calcium oscillation frequency in Swiss-Webster mouse primary neocortical neuron at 10 uM incubated for 45 min by Fluo-4 dye based; format: functional, cell-based

SMILES | pIC50 (K562) | Activity [1] | pIC50 (U-937) | pIC50 (CCRF-CEM) | Activity [2]
CCCC(=O)N(C)[C@H](C(=O)N(C)[C@@H](CC(C)C)C(=O)N[C@@H](CC(C)C)C(=O)N1CCC[C@H]1C(=O)N(C)[C@@H](C(=O)N[C@H](C(=O)NCC(=O)N(C)[C@H](Cc1ccccc1)C(=O)N1CCC[C@H]1C(=O)OC)[C@@H](C)CC)C(C)C)C(C)C | 4.68 | Non-Toxic | 5.14 | 5.25 | Active
CCCC(=O)N[C@H](C(=O)N(C)[C@@H](CC(C)C)C(=O)N[C@@H](CC(C)C)C(=O)N1CCC[C@H]1C(=O)N(C)[C@@H](C(=O)N[C@H](C(=O)NCC(=O)N(C)[C@H](Cc1ccccc1)C(=O)N1CCC[C@H]1C(=O)OC)[C@@H](C)CC)C(C)C)C(C)C (Butyryl-V[NMeL]LP[dNMeV]IG[dNMeF]P-OMe) | < 4.60 | Non-Toxic | 5.21 | 5.08 | Active
Nc1cc(F)ccc1NC(=O)c1ccc(CNC(=O)/C=C/c2cccnc2)cc1 [TUCIDINOSTAT] | 5.08 | – | 5.48 | 6.00 | –
